Measured values reported in the CheMixHub ionic liquid set.
± gives the uncertainty stated by the source.

Assay: xn = mol fraction of the nth substance listed

C[N+](C)(C)Cc1ccccc1.[Cl-] + O=C([O-])c1ccccc1.[Na+] + O
viscosity [mPa·s], 100 kPa
Settings	298.15 K	303.15 K	308.15 K	313.15 K	318.15 K
x1 = 9.698e-05, x2 = 0.001545	0.924 ± 0.02	0.835 ± 0.018	0.753 ± 0.017	0.654 ± 0.015	0.566 ± 0.013
x1 = 9.701e-05, x2 = 0.00127	0.919 ± 0.02	0.829 ± 0.018	0.748 ± 0.017	0.65 ± 0.015	0.562 ± 0.013
x1 = 9.703e-05, x2 = 0.0009982	0.913 ± 0.02	0.823 ± 0.018	0.742 ± 0.017	0.645 ± 0.015	0.558 ± 0.013
x1 = 9.706e-05, x2 = 0.0007245	0.906 ± 0.02	0.817 ± 0.018	0.737 ± 0.016	0.64 ± 0.014	0.552 ± 0.013
x1 = 9.709e-05, x2 = 0.0004525	0.901 ± 0.02	0.812 ± 0.018	0.731 ± 0.016	0.635 ± 0.014	0.548 ± 0.013
x1 = 9.711e-05, x2 = 0.0001803	0.896 ± 0.02	0.807 ± 0.018	0.726 ± 0.016	0.629 ± 0.014	0.544 ± 0.012
x1 = 0.0002915, x2 = 0.001548	0.927 ± 0.02	0.84 ± 0.019	0.758 ± 0.017	0.652 ± 0.015	0.562 ± 0.013
x1 = 0.0002916, x2 = 0.001	0.915 ± 0.02	0.827 ± 0.018	0.747 ± 0.017	0.64 ± 0.014	0.554 ± 0.013
x1 = 0.0002916, x2 = 0.001272	0.92 ± 0.02	0.833 ± 0.018	0.752 ± 0.017	0.647 ± 0.015	0.559 ± 0.013
x1 = 0.0002917, x2 = 0.0007258	0.909 ± 0.02	0.821 ± 0.018	0.74 ± 0.016	0.637 ± 0.014	0.55 ± 0.013
x1 = 0.0002918, x2 = 0.0004533	0.902 ± 0.02	0.816 ± 0.018	0.735 ± 0.016	0.631 ± 0.014	0.544 ± 0.012
x1 = 0.0002919, x2 = 0.0001807	0.898 ± 0.02	0.812 ± 0.018	0.731 ± 0.016	0.626 ± 0.014	0.54 ± 0.012
x1 = 0.0004867, x2 = 0.001551	0.932 ± 0.02	0.843 ± 0.019	0.76 ± 0.017	0.665 ± 0.015	0.577 ± 0.013
x1 = 0.0004868, x2 = 0.001275	0.926 ± 0.02	0.837 ± 0.018	0.754 ± 0.017	0.66 ± 0.015	0.573 ± 0.013
x1 = 0.0004869, x2 = 0.001002	0.919 ± 0.02	0.831 ± 0.018	0.748 ± 0.017	0.655 ± 0.015	0.569 ± 0.013
x1 = 0.0004871, x2 = 0.0007272	0.913 ± 0.02	0.826 ± 0.018	0.743 ± 0.017	0.649 ± 0.015	0.563 ± 0.013
x1 = 0.0004872, x2 = 0.0004542	0.908 ± 0.02	0.82 ± 0.018	0.737 ± 0.016	0.645 ± 0.015	0.559 ± 0.013
x1 = 0.0004873, x2 = 0.000181	0.903 ± 0.02	0.815 ± 0.018	0.733 ± 0.016	0.64 ± 0.014	0.555 ± 0.013

CC[n+]1ccn(C)c1.O=S(=O)([N-]S(=O)(=O)C(F)(F)F)C(F)(F)F + CCOS(=O)(=O)[O-].CC[n+]1ccn(C)c1
298.15 K, 100 kPa
Settings	viscosity [mPa·s]
x1 = 0.1042	95.6 ± 1.7
x1 = 0.2975	84.1 ± 1.4

CC[n+]1ccn(C)c1.F[B-](F)(F)F + CC(=O)N(C)C
Settings	electrical conductivity [S/m]	viscosity [mPa·s]
283.15 K, 100 kPa, x1 = 0.0006798	0.03925 ± 2e-05	–
288.15 K, 100 kPa, x1 = 0.001378	0.07985 ± 3.9e-05	–
298.15 K, 100 kPa, x1 = 0.0004953	0.03615 ± 1.7e-05	–
303.15 K, 101 kPa, x2 = 0	–	28 ± 0.45
303.15 K, 101 kPa, x2 = 0.1998	–	18.05 ± 0.27
303.15 K, 101 kPa, x2 = 0.6	–	5.678 ± 0.077
303.15 K, 101 kPa, x2 = 0.6996	–	3.833 ± 0.051
303.15 K, 101 kPa, x2 = 0.8001	–	2.499 ± 0.033
313.15 K, 100 kPa, x1 = 0.0006798	0.05765 ± 2.6e-05	–
313.15 K, 101 kPa, x2 = 0.5005	–	6.172 ± 0.086
313.15 K, 101 kPa, x2 = 0.6	–	4.493 ± 0.061
323.15 K, 101 kPa, x2 = 0	–	15.35 ± 0.25
323.15 K, 101 kPa, x2 = 0.2995	–	8.36 ± 0.12
333.15 K, 101 kPa, x2 = 0.2995	–	6.91 ± 0.1
333.15 K, 101 kPa, x2 = 0.3989	–	5.375 ± 0.077

CC(O)C(=O)[O-].C[N+](C)(C)CCO + CCO
101 kPa
Settings	viscosity [mPa·s]
293.15 K, x2 = 0.2996	225.4 ± 4.9
293.15 K, x2 = 0.7013	17.75 ± 0.17
293.15 K, x2 = 0.7987	8.579 ± 0.076
298.15 K, x2 = 0.7987	7.357 ± 0.065
303.15 K, x2 = 0.601	25.96 ± 0.25
303.15 K, x2 = 0.8996	2.853 ± 0.025
308.15 K, x2 = 0.2011	144.8 ± 2.5
318.15 K, x2 = 0	158.7 ± 3
318.15 K, x2 = 0.601	15.05 ± 0.15
323.15 K, x2 = 0.1039	91.6 ± 1.3
323.15 K, x2 = 0.5003	20.51 ± 0.21
323.15 K, x2 = 0.7987	3.792 ± 0.034
328.15 K, x2 = 0.1039	72.67 ± 0.91
328.15 K, x2 = 0.601	11.1 ± 0.11
328.15 K, x2 = 0.7987	3.387 ± 0.031
333.15 K, x2 = 0.1039	58.6 ± 0.69
333.15 K, x2 = 0.601	9.667 ± 0.093
338.15 K, x2 = 0.3999	19.08 ± 0.2

OC[C@@H](O)[C@@H](O)[C@H](O)[C@@H](O)CO + CCCCCCCCCCCCCCCC[N+](C)(C)C.[Br-] + O
viscosity [mPa·s], 100 kPa
Settings	298.15 K	308.15 K	318.15 K
x1 = 0.0007313, x2 = 1.441e-05	0.921 ± 0.06	0.762 ± 0.06	–
x1 = 0.0008985, x2 = 7.2e-06	0.923 ± 0.061	–	0.634 ± 0.06
x1 = 0.001226, x2 = 1.44e-05	–	0.774 ± 0.06	–
x1 = 0.001311, x2 = 2.16e-05	0.942 ± 0.061	0.779 ± 0.06	0.644 ± 0.06
x1 = 0.001618, x2 = 1.439e-05	0.949 ± 0.061	–	0.649 ± 0.06
x1 = 0.001661, x2 = 2.159e-05	0.954 ± 0.061	0.788 ± 0.06	0.651 ± 0.06
x1 = 0.001736, x2 = 7.2e-06	0.949 ± 0.061	–	0.651 ± 0.06
x1 = 0.001867, x2 = 7.19e-06	–	0.788 ± 0.06	0.654 ± 0.06
x1 = 0.001983, x2 = 2.158e-05	0.964 ± 0.061	–	0.658 ± 0.06
x1 = 0.00199, x2 = 1.439e-05	0.96 ± 0.061	0.793 ± 0.06	0.657 ± 0.06
x1 = 0.00225, x2 = 2.157e-05	0.973 ± 0.061	0.803 ± 0.06	0.664 ± 0.06
x1 = 0.002345, x2 = 7.19e-06	0.968 ± 0.061	0.799 ± 0.06	0.663 ± 0.06
x1 = 0.002374, x2 = 1.438e-05	0.972 ± 0.061	0.803 ± 0.061	0.665 ± 0.06
x1 = 0.002657, x2 = 1.438e-05	0.981 ± 0.061	0.81 ± 0.061	0.67 ± 0.06
x1 = 0.002734, x2 = 7.19e-06	0.98 ± 0.061	0.809 ± 0.061	0.671 ± 0.06
x1 = 0.002734, x2 = 2.156e-05	0.989 ± 0.061	0.816 ± 0.061	0.674 ± 0.06

CCCC[n+]1ccn(C)c1.[I-] + F[B-](F)(F)F.[Li+]
Settings	electrical conductivity [S/m]
308.15 K, 101 kPa, x2 = 0	0.0286 ± 0.004

CCCCCCCCCCCC[P+](CCCC)(CCCC)CCCC.N#Cc1ccc[n-]1 + OCCN(CCO)CCO
100 kPa
Settings	electrical conductivity [S/m]	viscosity [mPa·s]
293.15 K, x1 = 0.001	0.0001 ± 0.0001	–
293.15 K, x1 = 0.015	0.0027 ± 0.0003	–
293.15 K, x1 = 0.035	0.0034 ± 0.0003	1037 ± 160
293.15 K, x1 = 0.121	–	1056 ± 160
293.15 K, x1 = 0.538	0.0049 ± 0.0005	770 ± 120
293.15 K, x1 = 1	0.0082 ± 0.0008	567 ± 84
298.15 K, x1 = 0.035	–	670 ± 100
298.15 K, x1 = 0.325	–	623 ± 93
298.15 K, x1 = 0.755	–	477 ± 70
298.15 K, x1 = 1	–	389 ± 57
303.15 K, x1 = 0.017	–	436 ± 64
303.15 K, x1 = 0.054	–	439 ± 64
303.15 K, x1 = 0.325	–	421 ± 62
303.15 K, x1 = 0.755	–	336 ± 49
303.15 K, x1 = 1	–	297 ± 43
313.15 K, x1 = 0.096	–	217 ± 31
313.15 K, x1 = 0.325	–	209 ± 30
